Measured values: patent US20240399118A1, “INTRALUMINAL LOCAL DRUG DELIVERY” (Isola Therapeutics, Inc., priority 2023, published 2024)
Where two headings read alike, the source gives them in different places.

Assays:
porcine model = details: pig, in vivo
Protocol: Animals tested were of the porcine species from the breed Yorkshire Cross. The animals underwent surgery to place two (2) CVL catheters, 1 for infusion and 1 for plasma collection. Each animal received ˜1 L of lavage solution. The animals were allowed to recover and stabilize. Once the animals were awake and mobile, the animals were infused with 50 mcg/mL for 30 minutes.

[1] = cited from earlier work
[2] = Plasma concentration of diclofenac after local lavage delivery to the lungs in a porcine model (LC/MS); format: in vivo, porcine (Yorkshire Cross)
Source text: Each animal received ˜1 L of lavage solution. The animals were allowed to recover and stabilize. […] Spectra were compared to the validated protocol and standard curve generated for the study.

Question: For `C[C@@H]1C[C@H]2[C@@H]3CCC4=CC(=O)C=C[C@]4(C)[C@@]3(F)[C@@H](O)C[C@]2(C)[C@@]1(O)C(=O)COP(=O)([O-])[O-].[Na+].[Na+]` [Dexamethasone sodium phosphate, disodium; [2-[(8S,9R,10S,11S,13S,14S,16R, 17R)-9-fluoro-11,17-dihydroxy-10,13,16-trimethyl-3-oxo-6,7,8, 11, 12, 14, 15, 16-octahydrocyclopenta[a]phenanthren-17-yl]-2-oxoethyl] phosphate], which tolerability (porcine model) is on record?
Answer: well tolerated

Question: What about the solubility in water ([1]; water) of the same molecule?
Answer: 100 to 1000 mg/mL

Question: And the “solubility in water (in words)” value ([1]; water)?
Answer: freely soluble

Question: Which “solubility in water (in words)” value ([1]; water at 25° C.) does the source give for `O=C(O)Cc1ccccc1Nc1c(Cl)cccc1Cl` [Diclofenac sodium] here?
Answer: sparingly soluble

Question: With `O=C(O)Cc1ccccc1Nc1c(Cl)cccc1Cl` [Diclofenac, 2-[2-(2,6-dichloroanilino)phenyl]acetic acid] as the molecule, how does the “time of peak plasma concentration post-lung infusion” value ([2]; local lung delivery at 50 mcg/mL) read?
Answer: 5 min

Question: What about the “plasma Cmax as percent of the plasma Cmax resulting from systemic administration” value ([2]; local vs systemic administration) of the same molecule?
Answer: less than 0.05%

Question: And the “Plasma Concentration (ng/mL) by Time (min): 5 min” value ([2]; swine, local lung administration 50 mcg/mL, 5 min, animal 24P0133)?
Answer: 3430 ng/mL

Question: And the “Plasma Concentration (ng/mL) by Time (min): 15 min” value ([2]; swine, local lung administration 50 mcg/mL, 15 min, animal 24P0133)?
Answer: 3050 ng/mL

Question: What about the “Plasma Concentration (ng/mL) by Time (min): 30 min” value ([2]; swine, local lung administration 50 mcg/mL, 30 min, animal 24P0133) of the same molecule?
Answer: 2410 ng/mL

Question: What about the “Plasma Concentration (ng/mL) by Time (min): 0 min” value ([2]; swine, local lung administration 50 mcg/mL, ~1 L lavage solution, 0 min (baseline), animal 24P0133) of the same molecule?
Answer: BLQ

Question: What about the adverse events (porcine model) of the same molecule?
Answer: did not have any adverse events

Question: What about the clinical observations (porcine model) of the same molecule?
Answer: no abnormal clinical observations

Question: What about the lung tissue damage (porcine model) of the same molecule?
Answer: no signs of lung tissue damage
